Format in all cases: cell-based
For one experiment, the target named is T1, GLP-1R (INS1e assay) (Rattus norvegicus, UniProt P32301).
T1 construct: endogenous in cells; host or cells: INS-1E cells
T1 sequence (P32301 22-463): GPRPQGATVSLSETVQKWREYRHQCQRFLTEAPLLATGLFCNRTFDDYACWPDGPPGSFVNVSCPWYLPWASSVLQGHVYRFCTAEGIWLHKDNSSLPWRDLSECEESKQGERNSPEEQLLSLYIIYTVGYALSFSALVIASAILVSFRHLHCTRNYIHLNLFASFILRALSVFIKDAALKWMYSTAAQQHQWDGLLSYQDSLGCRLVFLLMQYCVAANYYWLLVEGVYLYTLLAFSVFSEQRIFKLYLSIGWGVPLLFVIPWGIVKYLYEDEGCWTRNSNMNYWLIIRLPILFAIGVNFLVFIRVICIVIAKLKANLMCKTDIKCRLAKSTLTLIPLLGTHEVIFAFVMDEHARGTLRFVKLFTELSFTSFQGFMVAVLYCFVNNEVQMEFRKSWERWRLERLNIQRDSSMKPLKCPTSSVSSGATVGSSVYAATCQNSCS
As to the kind of experiment: INS1e assay, cAMP activity at GLP-1R. To be noted: mono-lipidated peptides. The method in brief:
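cAMP was quantified by two-step HTRF, using anti-cAMP cryptate donor and cAMP-d2 acceptor, each diluted 1/20 in conjugate and lysis buffer. EC50 values of the synthetic peptides were derived from the cAMP readout.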

The target in experiment [1] is T2, human glucose-dependent insulinotropic peptide receptor (GIPR) (Homo sapiens, UniProt P48546).
T2 construct: expressed in transfected cells
T2 sequence (P48546 22-466): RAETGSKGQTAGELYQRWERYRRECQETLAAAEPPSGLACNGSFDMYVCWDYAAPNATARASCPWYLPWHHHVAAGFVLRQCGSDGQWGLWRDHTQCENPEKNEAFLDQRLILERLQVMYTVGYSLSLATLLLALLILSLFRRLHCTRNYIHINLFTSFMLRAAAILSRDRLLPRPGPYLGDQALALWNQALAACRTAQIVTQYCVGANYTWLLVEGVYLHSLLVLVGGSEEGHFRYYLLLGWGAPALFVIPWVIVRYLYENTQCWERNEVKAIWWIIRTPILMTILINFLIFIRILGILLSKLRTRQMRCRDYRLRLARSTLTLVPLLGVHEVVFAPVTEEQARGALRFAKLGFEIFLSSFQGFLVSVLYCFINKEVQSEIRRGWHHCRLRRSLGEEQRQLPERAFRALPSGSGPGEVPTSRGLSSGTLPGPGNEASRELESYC
As to the kind of experiment: cAMP assay, human GIPR cells. To be noted: cAMP assay. The essentials:
(§1)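 Peptide-stimulated cAMP measured by two-step HTRF after a 30 min room-temperature incubation with receptor-expressing cells (hGLP-1R, hGIPR at 1×10^5 cells/ml; hGCGR at 2×10^5 cells/ml). Duplicate dilutions; EC50 from 4-parameter logistic fit of % Delta F.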
For orientation: Cyclic AMP is a second messenger, typically raised through Gs and lowered through Gi signalling.

Experiment [2] addresses T3, human GLP-1 receptor (GLP-1R) (Homo sapiens, UniProt P43220).
T3 construct: expressed in transfected cells
The experiment is described as follows: cAMP assay, human GLP-1R cells. The method in brief: as §1

The target of experiment [3] is T4, human glucagon receptor (GCGR) (Homo sapiens, UniProt P47871).
T4 construct: expressed in transfected cells
As to the kind of experiment: cAMP assay, human GCGR cells. To be noted: cAMP assay. The essentials:
as §1

The mark [4] stands for this setting: mean of n1 and n2, read-out: INS1e assay EC50 Mean pM GLP-1R.
Setting [5] is: replicate n1, read-out: INS1e assay EC50 GLP-1R n1.
Where [6] appears, read: replicate n2, read-out: INS1e assay EC50 GLP-1R n2.
The mark [7] stands for this setting: first determination (n1), read-out: Primary assay EC50 GIP-R (n1).
The mark [8] stands for this setting: second determination (n2), read-out: Primary assay EC50 GIP-R (n2).
The mark [9] stands for this setting: cAMP assay, first determination (n1), read-out: Primary assay EC50 GLP-1R n1.
[10] abbreviates: cAMP assay, second determination (n2), read-out: Primary assay EC50 GLP-1R n2.
[11] abbreviates: mean of n1 and n2, read-out: Mean pM GLP-1R.
Setting [12] is: first determination (n1), read-out: Primary assay EC50 Gluc-R (n1).
[13] abbreviates: second determination (n2), read-out: Primary assay EC50 Gluc-R (n2).
Where [14] appears, read: Primary assay EC50 GIP-R (n1), first determination (n1).
Where [15] appears, read: read-out: Primary assay EC50 GIP-R (n2), second determination (n2).
Setting [16] is: Primary assay EC50 Gluc-R (n1), first determination (n1).
Where [17] appears, read: read-out: Primary assay EC50 Gluc-R (n2), second determination (n2).

EC50 data for five molecules are collected here from patent US10414811B2, “Protease-resistant lipidated GLP-1 analogs” (MEDIMMUNE LIMITED, priority 2015, dated 2019).

The structures appear in SMILES notation. Like-named read-outs stand apart in the source and are kept apart here.

T4 sequence (P47871 26-477): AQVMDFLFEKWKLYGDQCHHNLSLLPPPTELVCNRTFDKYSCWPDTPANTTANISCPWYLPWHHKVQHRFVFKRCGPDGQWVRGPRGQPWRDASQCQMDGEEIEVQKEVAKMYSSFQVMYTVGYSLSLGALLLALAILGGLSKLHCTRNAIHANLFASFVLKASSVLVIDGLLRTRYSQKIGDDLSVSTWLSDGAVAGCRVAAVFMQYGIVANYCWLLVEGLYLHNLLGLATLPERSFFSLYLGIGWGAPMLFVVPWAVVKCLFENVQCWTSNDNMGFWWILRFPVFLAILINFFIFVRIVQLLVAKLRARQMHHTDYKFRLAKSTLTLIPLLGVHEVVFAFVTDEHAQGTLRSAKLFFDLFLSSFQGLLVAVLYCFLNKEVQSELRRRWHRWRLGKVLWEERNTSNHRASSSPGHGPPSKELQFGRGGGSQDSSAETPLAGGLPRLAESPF
T3 sequence (P43220 24-463): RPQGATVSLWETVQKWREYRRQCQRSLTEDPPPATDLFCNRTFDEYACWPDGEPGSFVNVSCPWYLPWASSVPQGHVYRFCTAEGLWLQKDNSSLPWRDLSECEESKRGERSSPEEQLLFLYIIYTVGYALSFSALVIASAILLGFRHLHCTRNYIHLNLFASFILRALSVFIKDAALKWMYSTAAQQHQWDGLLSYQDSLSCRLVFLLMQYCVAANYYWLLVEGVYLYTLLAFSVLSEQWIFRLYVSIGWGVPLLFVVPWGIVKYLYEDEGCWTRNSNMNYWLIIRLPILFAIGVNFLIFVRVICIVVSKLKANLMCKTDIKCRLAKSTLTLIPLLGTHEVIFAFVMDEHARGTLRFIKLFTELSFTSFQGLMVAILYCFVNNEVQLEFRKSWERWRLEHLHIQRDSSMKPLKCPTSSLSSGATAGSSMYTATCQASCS

With `CCCCCCCCCCCC(=O)NCCOCCOCC(=O)NCCCC[C@H](NC(=O)[C@H](C)NC(=O)[C@H](C)NC(=O)[C@H](CCC(=O)O)NC(=O)CNC(=O)[C@H](CCC(=O)O)NC(=O)[C@H](CC(C)C)NC(=O)[C@](C)(Cc1ccccc1)NC(=O)[C@H](CO)NC(=O)[C@](C)(CO)NC(=O)[C@@H](NC(=O)[C@H](CC(=O)O)NC(=O)[C@H](CO)NC(=O)[C@@H](NC(=O)[C@](C)(Cc1ccccc1)NC(=O)[C@H](CO)NC(=O)CNC(=O)[C@H](CCC(=O)O)NC(=O)C(C)(C)NC(=O)[C@@H](N)Cc1c[nH]cn1)[C@@H](C)O)C(C)C)C(=O)N[C@@H](CCC(=O)O)C(=O)N[C@@](C)(Cc1ccccc1)C(=O)N[C@H](C(=O)N[C@@H](C)C(=O)N[C@@](C)(Cc1ccccc1)C(=O)N[C@H](C(=O)N[C@H](C(=O)N[C@@](C)(CCCCN)C(=O)NCC(=O)NCC(N)=O)C(C)C)C(C)C)[C@@H](C)CC` [compound 134], the EC50 was 123 pM on GLP-1R (INS1e assay) (setting [4]); 168 pM at GLP-1R (INS1e assay) (setting [5]); 77.6 pM on GLP-1R (INS1e assay) (setting [6]); not below 28000 pM in experiment [1] (setting [7]); not below 28000 pM in experiment [1] (setting [8]); 7 pM in experiment [2] (setting [9]). In addition, the EC50 is 4.9 pM in experiment [2] (setting [10]), 6 pM in experiment [2] (setting [11]), not below 28000 pM in experiment [3] (setting [12]) and not below 28000 pM in experiment [3] (setting [13]).

On to `CCCCCCCCCCCC(=O)NCCOCCOCC(=O)NCCOCCOCC(=O)NCCCC[C@H](NC(=O)[C@H](C)NC(=O)[C@H](C)NC(=O)[C@H](CCC(=O)O)NC(=O)CNC(=O)[C@H](CCC(=O)O)NC(=O)[C@H](CC(C)C)NC(=O)[C@](C)(Cc1ccccc1)NC(=O)[C@H](CO)NC(=O)[C@](C)(CO)NC(=O)[C@@H](NC(=O)[C@H](CC(=O)O)NC(=O)[C@H](CO)NC(=O)[C@@H](NC(=O)[C@](C)(Cc1ccccc1)NC(=O)[C@H](CO)NC(=O)CNC(=O)[C@H](CCC(=O)O)NC(=O)C(C)(C)NC(=O)[C@@H](N)Cc1c[nH]cn1)[C@@H](C)O)C(C)C)C(=O)N[C@@H](CCC(=O)O)C(=O)N[C@@](C)(Cc1ccccc1)C(=O)N[C@H](C(=O)N[C@@H](C)C(=O)N[C@@](C)(Cc1ccccc1)C(=O)N[C@H](C(=O)N[C@H](C(=O)N[C@@](C)(CCCCN)C(=O)NCC(=O)NCC(N)=O)C(C)C)C(C)C)[C@@H](C)CC` [compound 135], for which the EC50 at GLP-1R (INS1e assay) (setting [4]) is 79 pM; on GLP-1R (INS1e assay) (setting [5]), 98.6 pM; at GLP-1R (INS1e assay) (setting [6]) it was 59.3 pM; in experiment [1] (setting [7]), not below 27000 pM; in experiment [1] (setting [8]) it was not below 27000 pM; in experiment [2] (setting [9]) it was 5.4 pM. Besides, the EC50 in experiment [2] (setting [10]) is 4.5 pM; in experiment [2] (setting [11]), 5 pM; in experiment [3] (setting [12]) it was not below 27000 pM; in experiment [3] (setting [13]), not below 27000 pM.

Turning to `CCCCCCCCCCCC(=O)NCCOCCOCC(=O)NCCOCCOCC(=O)NCCOCCOCC(=O)NCCCC[C@H](NC(=O)[C@H](C)NC(=O)[C@H](C)NC(=O)[C@H](CCC(=O)O)NC(=O)CNC(=O)[C@H](CCC(=O)O)NC(=O)[C@H](CC(C)C)NC(=O)[C@](C)(Cc1ccccc1)NC(=O)[C@H](CO)NC(=O)[C@](C)(CO)NC(=O)[C@@H](NC(=O)[C@H](CC(=O)O)NC(=O)[C@H](CO)NC(=O)[C@@H](NC(=O)[C@](C)(Cc1ccccc1)NC(=O)[C@H](CO)NC(=O)CNC(=O)[C@H](CCC(=O)O)NC(=O)C(C)(C)NC(=O)[C@@H](N)Cc1c[nH]cn1)[C@@H](C)O)C(C)C)C(=O)N[C@@H](CCC(=O)O)C(=O)N[C@@](C)(Cc1ccccc1)C(=O)N[C@H](C(=O)N[C@@H](C)C(=O)N[C@@](C)(Cc1ccccc1)C(=O)N[C@H](C(=O)N[C@H](C(=O)N[C@@](C)(CCCCN)C(=O)NCC(=O)NCC(N)=O)C(C)C)C(C)C)[C@@H](C)CC` [compound 136], the EC50 is 37 pM at GLP-1R (INS1e assay) (setting [4]); 52.6 pM on GLP-1R (INS1e assay) (setting [5]); 21.5 pM at GLP-1R (INS1e assay) (setting [6]); not below 26000 pM in experiment [1] (setting [7]); not below 26000 pM in experiment [1] (setting [8]); 3.5 pM in experiment [2] (setting [9]). Moreover, the EC50 in experiment [2] (setting [10]) is 2.5 pM; in experiment [2] (setting [11]) it was 3 pM; in experiment [3] (setting [12]), not below 26000 pM; in experiment [3] (setting [13]), not below 26000 pM.

For `CC[C@H](C)[C@H](NC(=O)[C@](C)(Cc1ccccc1)NC(=O)[C@H](CCC(=O)O)NC(=O)[C@H](CCCCNC(=O)CC[C@H](NC(=O)CCCCCCCCCCCOc1ccc(C(=O)O)cc1)C(=O)O)NC(=O)[C@H](C)NC(=O)[C@H](C)NC(=O)[C@H](CCC(=O)O)NC(=O)CNC(=O)[C@H](CCC(=O)O)NC(=O)[C@H](CC(C)C)NC(=O)[C@](C)(Cc1ccccc1)NC(=O)[C@H](CO)NC(=O)[C@](C)(CO)NC(=O)[C@@H](NC(=O)[C@H](CC(=O)O)NC(=O)[C@H](CO)NC(=O)[C@@H](NC(=O)[C@](C)(Cc1ccccc1)NC(=O)[C@H](CO)NC(=O)CNC(=O)[C@H](CCC(=O)O)NC(=O)C(C)(C)NC(=O)[C@@H](N)Cc1c[nH]cn1)[C@@H](C)O)C(C)C)C(=O)N[C@@H](C)C(=O)N[C@@](C)(Cc1ccccc1)C(=O)N[C@H](C(=O)N[C@H](C(=O)N[C@@](C)(CCCCN)C(=O)NCC(=O)NCC(N)=O)C(C)C)C(C)C` [compound 137], the EC50 on GLP-1R (INS1e assay) (setting [4]) is 50 pM; on GLP-1R (INS1e assay) (setting [5]), 63.7 pM; at GLP-1R (INS1e assay) (setting [6]), 36.2 pM; in experiment [1] (setting [14]), not below 27000 pM; in experiment [1] (setting [15]), not below 27000 pM; in experiment [2] (setting [9]), 6.6 pM. In addition, the EC50 in experiment [2] (setting [10]) was 3.8 pM; in experiment [2] (setting [11]), 5.2 pM; in experiment [3] (setting [16]) it was not below 27000 pM; in experiment [3] (setting [17]), not below 27000 pM.

For `CC[C@H](C)[C@H](NC(=O)[C@](C)(Cc1ccccc1)NC(=O)[C@H](CCC(=O)O)NC(=O)[C@H](CCCCNC(=O)CCCCCNC(=O)CCCCCCCCCCCOc1ccc(C(=O)O)cc1)NC(=O)[C@H](C)NC(=O)[C@H](C)NC(=O)[C@H](CCC(=O)O)NC(=O)CNC(=O)[C@H](CCC(=O)O)NC(=O)[C@H](CC(C)C)NC(=O)[C@](C)(Cc1ccccc1)NC(=O)[C@H](CO)NC(=O)[C@](C)(CO)NC(=O)[C@@H](NC(=O)[C@H](CC(=O)O)NC(=O)[C@H](CO)NC(=O)[C@@H](NC(=O)[C@](C)(Cc1ccccc1)NC(=O)[C@H](CO)NC(=O)CNC(=O)[C@H](CCC(=O)O)NC(=O)C(C)(C)NC(=O)[C@@H](N)Cc1c[nH]cn1)[C@@H](C)O)C(C)C)C(=O)N[C@@H](C)C(=O)N[C@@](C)(Cc1ccccc1)C(=O)N[C@H](C(=O)N[C@H](C(=O)N[C@@](C)(CCCCN)C(=O)NCC(=O)NCC(N)=O)C(C)C)C(C)C` [compound 140], the EC50 was 30 pM at GLP-1R (INS1e assay) (setting [4]); 43.2 pM at GLP-1R (INS1e assay) (setting [5]); 16.7 pM on GLP-1R (INS1e assay) (setting [6]); not below 27000 pM in experiment [1] (setting [14]); not below 27000 pM in experiment [1] (setting [15]); 5.9 pM in experiment [2] (setting [9]). Also, the EC50 in experiment [2] (setting [10]) was 3.9 pM; in experiment [2] (setting [11]), 4.9 pM; in experiment [3] (setting [16]), not below 27000 pM; in experiment [3] (setting [17]) it was not below 27000 pM.
